One molecule from the NIST ThermoML archive (doi:10.1021/je2008523) can be followed below.

Numbers after ± are expanded uncertainties.

The nature of data set [1]: refractive index (Na D-line) (dimensionless). The conditions noted are these: 303.1 K; 101.33 kPa; Liquid; Standard Abbe refractometry.

One may read the refractive index as the speed of light in vacuum divided by its phase velocity in the sample. A word on the mass density: it is the mass of a sample divided by its volume. The term viscosity denotes the internal friction of a fluid under shear. As a reminder, the surface tension liquid-gas is the force per length acting along the surface. `CN(CCO)CCO` [N-methyldiethanolamine]: the refractive index in data set [1] stood at 1.46008 ± 0.00051. The mass density (298.1 K, 101.33 kPa, Liquid, Vibrating tube method) was 1038.11 ± 0.92 kg/m3. Further, the viscosity (298.15 K, 101.33 kPa, Liquid, Capillary tube (Ostwald / Ubbelohde) method) worked out at 77.09 ± 1.8 mPa·s. Under “303.15 K, Pendant drop shape”, the surface tension liquid-gas worked out at 38.26 ± 0.53 mN/m.
